What was measured:
[1] = tested on: 3T3-L1 Mouse Adipocytes; test: Free fatty acid levels in cultured 3T3-L1 mouse adipocytes (isoproterenol stimulated); assay type: cell-based; conditions: free fatty acid in medium; 5 μM peptide, 20-22 h pre-incubation then 3 h with 0.1 nM isoproterenol; isoproterenol alone = 100%
How it was run: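 3T3-L1 cells differentiated 12 days, insulin withdrawn, then peptides added on day 13 at 5 μM (0.1% DMSO) for 20-22 h at 37° C. After 3 h in assay buffer, medium free fatty acids read at 540 nm. Values expressed as percent of 0.1 nM isoproterenol-alone control.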

[2] = tested on: C2C12 Cells; test: Glucose utilization in cultured C2C12 cells (myotubes); assay type: cell-based, mouse; conditions: glucose concentration in medium relative to untreated cells; 5 μM peptide, 22 h
How it was run: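 Differentiated mouse myotubes (5 days in 2% horse serum) serum-starved 5 h, then treated 22 h at 37 °C with peptide at 5 μM final (0.1% DMSO) in low-glucose (1 g/L) DMEM. Glucose remaining in medium measured colorimetrically at 570 nm. Expressed as percent of untreated control, from 2–3 experiments in triplicate.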

[3] = tested on: H4-IIE Cells; test: Glucose production in cultured H4-IIE cells; assay type: cell-based, rat; conditions: glucose concentration in medium relative to untreated cells; 5 μM peptide, 24 h
How it was run: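 Rat H4-IIE hepatoma cells primed overnight in glucose-free DMEM with 2 mM pyruvate and 10 mM lactate, then treated 24 h at 37 °C with 5 μM peptide (0.1% DMSO; concentration assumes ~2000 Da). Medium glucose measured colorimetrically at 570 nm. Values are percent of untreated-cell glucose production; 0.5-1 nM insulin served as inhibitor reference.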

| Substance | Percent of Isoproterenol Control Activity [1] [%] | Percent of Control Activity [2] [%] | Percent of Control Activity [3] [%] |
| --- | --- | --- | --- |
| 111 (MQRWFFMSLVVVVVRA) [compound 111] | 89 | 101 | 91 |
| 112 (MQSGVLQSLAVTEIKYCNLL) [compound 112] | 103 | 93 | 144 |
| 113 (MQTKSLQSPQ) [compound 113] | 102 | 97 | 134 |
| 114 (MQWAILGLFVVG) [compound 114] | 76 | 107 | 118 |
| 116 (MSGVRKEVSLL) [compound 116] | 90 | 99 | 123 |
| 117 (MSKKIPATTMVLEWS) [compound 117] | 98 | 91 | 121 |
| 118 (MSLSYLQDSTY) [compound 118] | 98 | 83 | 126 |
| 119 (MSLTPHILPTMP) [compound 119] | 97 | 109 | 122 |
| 120 (MSMPVLGWQWG) [compound 120] | 95 | 98 | 118 |
| 121 (MSNMKTFSSA) [compound 121] | 118 | 99 | 95 |
| 122 (MSNNMAFSTFKG) [compound 122] | 113 | 103 | 97 |
| 123 (MSRNHSFCLNYMPIRFSLILFVVTH) [compound 123] | 104 | 88 | 106 |
| 124 (MSSAWIIWFRLFSI) [compound 124] | 113 | 96 | 97 |
| 125 (MSSDEFANTMPV) [compound 125] | 115 | 109 | 96 |
| 126 (MSTHLPNYHTNLSYR) [compound 126] | 108 | 110 | 87 |
| 127 (MSTINQQVIITLTVNPTQACS) [compound 127] | 104 | 109 | 88 |
| 128 (MSWSNIEVVNPIVDMDS) [compound 128] | 116 | 103 | 93 |
| 129 (MSYRAHTPKMLVMPFPY) [compound 129] | 115 | 110 | 90 |
| 130 (MTAPVKLQGVWM) [compound 130] | 110 | 103 | 97 |
| 131 (MTELLTPNWTNLSPY) [compound 131] | 110 | 107 | 97 |
| 133 (MTLGHNMIYLHTS) [compound 133] | 107 | 100 | 91 |
| 134 (MTNIFGVWAR) [compound 134] | 111 | 101 | 92 |
| 135 (MTNPENQNERKSVRFIHCPHNP) [compound 135] | 127 | 109 | 93 |
| 136 (MTNTLNSIHPPLP) [compound 136] | 124 | 99 | 94 |
| 137 (MTSLHNSFYSKDTSLRTPLMTP) [compound 137] | 115 | 116 | 96 |
| 138 (MTSPKIQNNNTPDHTANNQY) [compound 138] | 111 | 115 | 92 |
| 139 (MTWPTEQVTLGMTAQSYS) [compound 139] | 91 | 100 | 97 |

Source: patent US20220332774A1, “THERAPEUTIC MITOCHONDRIAL PEPTIDES” (priority 2019, published 2022)
